Laboratory results: ChEMBL document CHEMBL4145492, “Discovery of biphenyl-substituted diarylpyrimidines as non-nucleoside reverse transcriptase inhibitors with high potency against wild-type and mutant HIV-1” (Eur J Med Chem, 2018)

System: Human immunodeficiency virus 1
Experiment: Antiviral activity against HIV1 harboring reverse transcriptase L100I mutant infected in human MT4 cells assessed as reduction of virus-induced cytopathic effect after 4 days by MTT assay
Assay type: functional, organism-based
Conditions: Human immunodeficiency virus 1, MT4, 96 h
Work on `Cc1cc(-c2ccccc2F)cc(C)c1Nc1ccnc(Nc2ccc(C#N)cc2)n1` yielded an EC50 of 12 nM. Compound `Cc1cc(-c2cccc(C#N)c2)cc(C)c1Nc1ccnc(Nc2ccc(C#N)cc2)n1` has an EC50 of 17 nM. `Cc1cc(-c2ccc(C#N)cc2)cc(C)c1Nc1ccnc(Nc2ccc(C#N)cc2)n1` showed an EC50 of 1.3 nM. With `Cc1cc(-c2ccc(F)cc2)cc(C)c1Nc1ccnc(Nc2ccc(C#N)cc2)n1` the EC50 was 10 nM. Compound `O=C1Nc2ccc(Cl)cc2[C@@](C#CC2CC2)(C(F)(F)F)O1` [EFAVIRENZ] has an EC50 of 1 nM. For `Cc1cc(C#N)cc(C)c1Oc1nc(Nc2ccc(C#N)cc2)nc(N)c1Br` [ETRAVIRINE], the EC50 was 2.7 nM.

System: Human immunodeficiency virus 1
Experiment: Antiviral activity against wild type HIV1 3B infected in human MT4 cells assessed as reduction of virus-induced cytopathic effect after 4 days by MTT assay
Assay type: functional, organism-based
Conditions: Human immunodeficiency virus 1, 3B, MT4, 96 h
With `Cc1cc(-c2ccccc2F)cc(C)c1Nc1ccnc(Nc2ccc(C#N)cc2)n1` the EC50 was 1.4 nM. Compound `Cc1cc(-c2cccc(C#N)c2)cc(C)c1Nc1ccnc(Nc2ccc(C#N)cc2)n1` has an EC50 of 1.5 nM. With `Cc1cc(-c2ccc(C#N)cc2)cc(C)c1Nc1ccnc(Nc2ccc(C#N)cc2)n1` the EC50 was 1 nM. Work on `Cc1cc(-c2ccc(F)cc2)cc(C)c1Nc1ccnc(Nc2ccc(C#N)cc2)n1` yielded an EC50 of 1.4 nM. For `O=C1Nc2ccc(Cl)cc2[C@@](C#CC2CC2)(C(F)(F)F)O1` [EFAVIRENZ], the EC50 was 0.43 nM. Compound `Cc1cc(C#N)cc(C)c1Oc1nc(Nc2ccc(C#N)cc2)nc(N)c1Br` [ETRAVIRINE] has an EC50 of 1.5 nM.

System: not listed separately
Experiment: Cytotoxicity against human MT4 cells assessed as reduction in cell viability after 4 days by MTT assay
Assay type: cell-based
Conditions: not given
In the case of `Cc1cc(-c2ccccc2F)cc(C)c1Nc1ccnc(Nc2ccc(C#N)cc2)n1`, the CC50 at 96 h is reported as 2120 nM. For `Cc1cc(-c2cccc(C#N)c2)cc(C)c1Nc1ccnc(Nc2ccc(C#N)cc2)n1`, the CC50 at 96 h was 920 nM. `Cc1cc(-c2ccc(F)cc2)cc(C)c1Nc1ccnc(Nc2ccc(C#N)cc2)n1` showed a CC50 at 96 h of 4170 nM. Work on `O=C1Nc2ccc(Cl)cc2[C@@](C#CC2CC2)(C(F)(F)F)O1` [EFAVIRENZ] yielded a CC50 at 96 h greater than 2000 nM. `Cc1cc(C#N)cc(C)c1Oc1nc(Nc2ccc(C#N)cc2)nc(N)c1Br` [ETRAVIRINE] gave a CC50 at 96 h greater than 2000 nM.

System: Human immunodeficiency virus 1
Experiment: Antiviral activity against HIV1 RES056 harboring reverse transcriptase K103 N/Y181C double mutant infected in human MT4 cells assessed as reduction of virus-induced cytopathic effect after 4 days by MTT assay
Assay type: functional, organism-based
Conditions: Human immunodeficiency virus 1, RES056, MT4, 96 h
For `Cc1cc(-c2ccccc2F)cc(C)c1Nc1ccnc(Nc2ccc(C#N)cc2)n1`, the EC50 was 230 nM. In the case of `Cc1cc(-c2cccc(C#N)c2)cc(C)c1Nc1ccnc(Nc2ccc(C#N)cc2)n1`, the EC50 is reported as 270 nM. `Cc1cc(-c2ccc(C#N)cc2)cc(C)c1Nc1ccnc(Nc2ccc(C#N)cc2)n1` gave an EC50 of 10 nM. `Cc1cc(-c2ccc(F)cc2)cc(C)c1Nc1ccnc(Nc2ccc(C#N)cc2)n1` showed an EC50 of 190 nM. For `O=C1Nc2ccc(Cl)cc2[C@@](C#CC2CC2)(C(F)(F)F)O1` [EFAVIRENZ], the EC50 was 40 nM. For `Cc1cc(C#N)cc(C)c1Oc1nc(Nc2ccc(C#N)cc2)nc(N)c1Br` [ETRAVIRINE], the EC50 was 10 nM.

System: Human immunodeficiency virus 1
Experiment: Antiviral activity against HIV1 harboring reverse transcriptase K103N mutant infected in human MT4 cells assessed as reduction of virus-induced cytopathic effect after 4 days by MTT assay
Assay type: functional, organism-based
Conditions: Human immunodeficiency virus 1, MT4, 96 h
With `Cc1cc(-c2ccccc2F)cc(C)c1Nc1ccnc(Nc2ccc(C#N)cc2)n1` the EC50 was 3.2 nM. `Cc1cc(-c2cccc(C#N)c2)cc(C)c1Nc1ccnc(Nc2ccc(C#N)cc2)n1` showed an EC50 of 2.3 nM. Work on `Cc1cc(-c2ccc(C#N)cc2)cc(C)c1Nc1ccnc(Nc2ccc(C#N)cc2)n1` yielded an EC50 of 0.84 nM. For `Cc1cc(-c2ccc(F)cc2)cc(C)c1Nc1ccnc(Nc2ccc(C#N)cc2)n1`, the EC50 was 2.3 nM. In the case of `O=C1Nc2ccc(Cl)cc2[C@@](C#CC2CC2)(C(F)(F)F)O1` [EFAVIRENZ], the EC50 is reported as 19 nM. Work on `Cc1cc(C#N)cc(C)c1Oc1nc(Nc2ccc(C#N)cc2)nc(N)c1Br` [ETRAVIRINE] yielded an EC50 of 1.5 nM.

System: Human immunodeficiency virus 2
Experiment: Antiviral activity against HIV2 ROD infected in human MT4 cells assessed as reduction of virus-induced cytopathic effect after 4 days by MTT assay
Assay type: functional, organism-based
Conditions: Human immunodeficiency virus 2, ISOLATE ROD, MT4, 96 h
In the case of `Cc1cc(-c2ccccc2F)cc(C)c1Nc1ccnc(Nc2ccc(C#N)cc2)n1`, the EC50 is reported as greater than 2120 nM. With `Cc1cc(-c2cccc(C#N)c2)cc(C)c1Nc1ccnc(Nc2ccc(C#N)cc2)n1` the EC50 was greater than 920 nM. With `Cc1cc(-c2ccc(C#N)cc2)cc(C)c1Nc1ccnc(Nc2ccc(C#N)cc2)n1` the EC50 was greater than 2080 nM. `Cc1cc(-c2ccc(F)cc2)cc(C)c1Nc1ccnc(Nc2ccc(C#N)cc2)n1` gave an EC50 greater than 3990 nM.

System: Human immunodeficiency virus 1
Experiment: Antiviral activity against HIV1 harboring reverse transcriptase Y188L mutant infected in human MT4 cells assessed as reduction of virus-induced cytopathic effect after 4 days by MTT assay
Assay type: functional, organism-based
Conditions: Human immunodeficiency virus 1, MT4, 96 h
`Cc1cc(-c2ccccc2F)cc(C)c1Nc1ccnc(Nc2ccc(C#N)cc2)n1` gave an EC50 of 130 nM. Work on `Cc1cc(-c2cccc(C#N)c2)cc(C)c1Nc1ccnc(Nc2ccc(C#N)cc2)n1` yielded an EC50 greater than 920 nM. `Cc1cc(-c2ccc(C#N)cc2)cc(C)c1Nc1ccnc(Nc2ccc(C#N)cc2)n1` showed an EC50 of 11 nM. For `Cc1cc(-c2ccc(F)cc2)cc(C)c1Nc1ccnc(Nc2ccc(C#N)cc2)n1`, the EC50 was 160 nM. `O=C1Nc2ccc(Cl)cc2[C@@](C#CC2CC2)(C(F)(F)F)O1` [EFAVIRENZ] gave an EC50 of 59 nM. `Cc1cc(C#N)cc(C)c1Oc1nc(Nc2ccc(C#N)cc2)nc(N)c1Br` [ETRAVIRINE] gave an EC50 of 7.9 nM.

System: Human immunodeficiency virus 1
Experiment: Antiviral activity against HIV1 harboring reverse transcriptase E138K mutant infected in human MT4 cells assessed as reduction of virus-induced cytopathic effect after 4 days by MTT assay
Assay type: functional, organism-based
Conditions: Human immunodeficiency virus 1, MT4, 96 h
With `Cc1cc(-c2ccccc2F)cc(C)c1Nc1ccnc(Nc2ccc(C#N)cc2)n1` the EC50 was 7.8 nM. `Cc1cc(-c2cccc(C#N)c2)cc(C)c1Nc1ccnc(Nc2ccc(C#N)cc2)n1` gave an EC50 of 8.1 nM. For `Cc1cc(-c2ccc(C#N)cc2)cc(C)c1Nc1ccnc(Nc2ccc(C#N)cc2)n1`, the EC50 was 2 nM. Work on `Cc1cc(-c2ccc(F)cc2)cc(C)c1Nc1ccnc(Nc2ccc(C#N)cc2)n1` yielded an EC50 of 8.1 nM. For `O=C1Nc2ccc(Cl)cc2[C@@](C#CC2CC2)(C(F)(F)F)O1` [EFAVIRENZ], the EC50 was 1.6 nM. `Cc1cc(C#N)cc(C)c1Oc1nc(Nc2ccc(C#N)cc2)nc(N)c1Br` [ETRAVIRINE] gave an EC50 of 7.3 nM.

System: not listed separately
Experiment: Selectivity index, ratio of CC50 for human MT4 cells to EC50 for wild type HIV1 3B
Assay type: toxicity
Conditions: read-out: Ratio CC50/EC50
For `Cc1cc(-c2ccccc2F)cc(C)c1Nc1ccnc(Nc2ccc(C#N)cc2)n1`, the selectivity ratio was 1540. For `Cc1cc(-c2cccc(C#N)c2)cc(C)c1Nc1ccnc(Nc2ccc(C#N)cc2)n1`, the selectivity ratio was 601. In the case of `Cc1cc(-c2ccc(C#N)cc2)cc(C)c1Nc1ccnc(Nc2ccc(C#N)cc2)n1`, the selectivity ratio is reported as 2060. In the case of `Cc1cc(-c2ccc(F)cc2)cc(C)c1Nc1ccnc(Nc2ccc(C#N)cc2)n1`, the selectivity ratio is reported as 2950. `Cc1cc(C#N)cc(C)c1Oc1nc(Nc2ccc(C#N)cc2)nc(N)c1Br` [ETRAVIRINE] showed a selectivity ratio greater than 1320.

System: Human immunodeficiency virus 1
Experiment: Antiviral activity against HIV1 harboring reverse transcriptase F227L/V106A double mutant infected in human MT4 cells assessed as reduction of virus-induced cytopathic effect after 4 days by MTT assay
Assay type: functional, organism-based
Conditions: Human immunodeficiency virus 1, MT4, 96 h
Compound `Cc1cc(-c2ccccc2F)cc(C)c1Nc1ccnc(Nc2ccc(C#N)cc2)n1` has an EC50 of no less than 390 nM. For `Cc1cc(-c2cccc(C#N)c2)cc(C)c1Nc1ccnc(Nc2ccc(C#N)cc2)n1`, the EC50 was greater than 920 nM. Work on `Cc1cc(-c2ccc(C#N)cc2)cc(C)c1Nc1ccnc(Nc2ccc(C#N)cc2)n1` yielded an EC50 of no less than 110 nM. `Cc1cc(-c2ccc(F)cc2)cc(C)c1Nc1ccnc(Nc2ccc(C#N)cc2)n1` gave an EC50 of 320 nM. Work on `O=C1Nc2ccc(Cl)cc2[C@@](C#CC2CC2)(C(F)(F)F)O1` [EFAVIRENZ] yielded an EC50 of 50 nM. With `Cc1cc(C#N)cc(C)c1Oc1nc(Nc2ccc(C#N)cc2)nc(N)c1Br` [ETRAVIRINE] the EC50 was 7 nM.

Biological target: Human immunodeficiency virus type 1 reverse transcriptase (Human immunodeficiency virus 1, UniProt Q72547)
Experiment: Inhibition of recombinant wild type HIV1 reverse transcriptase p66/p51 using poly (rA)/anoligo (dT)16 as template/primer assessed as inhibition of biotin-dUTP incorporation after 40 mins by Pico-Green staining based fluorescence assay
Conditions: not given
In the case of `Cc1cc(-c2ccccc2F)cc(C)c1Nc1ccnc(Nc2ccc(C#N)cc2)n1`, the IC50 is reported as 9 nM. `Cc1cc(-c2cccc(C#N)c2)cc(C)c1Nc1ccnc(Nc2ccc(C#N)cc2)n1` showed an IC50 of 11 nM. With `Cc1cc(-c2ccc(C#N)cc2)cc(C)c1Nc1ccnc(Nc2ccc(C#N)cc2)n1` the IC50 was 14 nM. Work on `Cc1cc(-c2ccc(F)cc2)cc(C)c1Nc1ccnc(Nc2ccc(C#N)cc2)n1` yielded an IC50 of 17 nM.

System: Human immunodeficiency virus 1
Experiment: Antiviral activity against HIV1 harboring reverse transcriptase Y181C mutant infected in human MT4 cells assessed as reduction of virus-induced cytopathic effect after 4 days by MTT assay
Assay type: functional, organism-based
Conditions: Human immunodeficiency virus 1, MT4, 96 h
In the case of `Cc1cc(-c2ccccc2F)cc(C)c1Nc1ccnc(Nc2ccc(C#N)cc2)n1`, the EC50 is reported as 8 nM. Work on `Cc1cc(-c2cccc(C#N)c2)cc(C)c1Nc1ccnc(Nc2ccc(C#N)cc2)n1` yielded an EC50 of 11 nM. Work on `Cc1cc(-c2ccc(C#N)cc2)cc(C)c1Nc1ccnc(Nc2ccc(C#N)cc2)n1` yielded an EC50 of 1.5 nM. Work on `Cc1cc(-c2ccc(F)cc2)cc(C)c1Nc1ccnc(Nc2ccc(C#N)cc2)n1` yielded an EC50 of 8.3 nM. Work on `O=C1Nc2ccc(Cl)cc2[C@@](C#CC2CC2)(C(F)(F)F)O1` [EFAVIRENZ] yielded an EC50 of 1.5 nM. Compound `Cc1cc(C#N)cc(C)c1Oc1nc(Nc2ccc(C#N)cc2)nc(N)c1Br` [ETRAVIRINE] has an EC50 of 8.1 nM.
